One data set has as its system CYP2B6. Put plainly: CYP phenotyping cocktail clinical study: efavirenz/8-OH-efavirenz metabolic ratio and its association with PCB plasma levels. Particulars: linear regression of MR AUC0–8 h 8-OH-efavirenz/efavirenz (CYP2B6 activity) on PCB plasma concentration. The method, then: (§1) The participants were ascertained not to have any acute disease by medical history, physical examination, laboratory screening, including hematological and biochemical blood tests, and a 12-lead electrocardiogram. […] The demographic data of the subjects are summarized in Table 1 in the supplemental data. At the enrollment visit, 2 blood samples (9 ml each) were collected into ethylenediaminetetraacetic acid (EDTA)-containing tubes taken from each subject for analyzing the plasma concentrations of PCB congeners and for pharmacogenetic analysis.
(§2) Participants stayed fasted from the evening before until 3 h after drug administration. After that, a meal was provided. Water and juice were permitted but alcoholic and caffeinated beverages were not allowed from the evening before drug administration until the last blood sample was taken on the next day. Venous blood samples (9 ml each) were collected through an intravenous catheter immediately before and 0.25, 0.5, 0.75, 1, 1.5, 2, 2.5, 3, 4, 5, 6, 7, 8, and 24 h after drug administration. Blood was drawn into EDTA-coated tubes, centrifuged at 1500 g for 10 min at 4 °C, and plasma samples were subsequently stored at − 80 °C until further analysis. After completely voiding the bladder immediately before drug administration, the participants collected urine from 0 to 24 h after drug administration. After weighing the collected urine, a 10 ml aliquot of each fraction was taken.
(§3) Commercially sourced standards and internal standards were used for quantification (see Supplemental Materials). In brief, 20 µl of the plasma samples were protein-precipitated with 80 µl methanol containing all internal standards or were treated for 16 h at 37 °C with 2 µl β-glucuronidase (1,000,000 Units) for deconjugation before protein precipitation with 78 µl methanol containing internal standards. Samples were centrifuged for 20 min, at 4 °C and 17,000 × g, and 40 µl of the supernatants were diluted with 40 µl LC–MS grade water, centrifuged again for 5 min at 4 °C and 17,000 × g and 50 µl supernatant were transferred to LC–MS vials 5 µl of the samples were injected into the LC–MS system.
(§4) An Agilent 1290 Infinity II UHPLC coupled with a SCIEX QTRAP6500 + triple quadrupole mass spectrometer was used. Chromatographic separation was achieved on an Agilent Poroshell 120 EC-C18 (1.9 µm, 2.1 × 50 mm) column with A: 0.1% formic acid in water and B: methanol with a flow rate of 0.7 ml/min and a total run time of 8.5 min. Analytes were eluted using a gradient program. The following gradient steps represent gradual changes in % B over time: 5% B from 0 to 0.2 min, 30% B at 2 min, 34% B at 4.8 min, 95% B at 6.5 min, 95% B at 7.5 min and re-equilibrating to 5% B at 7.7 min and 5%B till 8.5 min. A representative chromatogram is shown in supplemental Fig. 2. The scheduled MRM mode was applied for analyte detection in both positive and negative ESI modes (Supplementary Table 4). Calibration curves were constructed with linear regression using weighted (1/x^2) models (detailed information in supplemental methods).
(§5) Partial areas under the plasma concentration–time curves from 0 to 3 h (AUC0–3 h), from 0 to 4 h (AUC0–4 h), and from 0 to 8 h (AUC0–8 h) were calculated based on measured concentrations by the linear trapezoidal rule without extrapolation. […] Metabolic ratios (MR) were calculated by dividing the partial AUC of the metabolite by the respective partial AUC of the parent drug. The MRs were used as biomarkers for the individual CYP activities of the study subjects.

The subject of data set [1] is CYP2C9. As to the kind of experiment: CYP phenotyping cocktail clinical study: torsemide/OH-torsemide metabolic ratio and its association with PCB plasma levels. The method, then:
as §1, §2, §3, §4, §5

The next data set has as its system CYP2D6. Put plainly: CYP phenotyping cocktail clinical study: metoprolol/α-OH-metoprolol metabolic ratio and its association with PCB plasma levels. Particulars: linear regression of MR AUC0–8 h α-OH-metoprolol/metoprolol (CYP2D6 activity) on PCB plasma concentration. The method, then: as §1, §2, §3, §4, §5
Data set [2] is described as follows: Determination of PCB concentrations in plasma of HELPcB and control participants. The data set is classed as in vivo. To be noted: human plasma. The method, then: The laboratory regularly participates in round robins for the determination of PCBs in plasma (www.g-equas.de).
Plasma concentrations of PCB congeners were quantified in blood samples from all participants using gas chromatography/mass spectrometry (GC–MS) (Fig. 2A and Supplementary Table 2). A total of 19 PCB congeners were measured in control (n = 10) and HELPcB (n = 10) participants, with PCBs detected in all individuals. […] In the control group, PCB plasma concentrations primarily reflected background environmental exposure, such as dietary intake, representing the general population’s burden.

Data set [3] addresses HEK293 cells overexpressing CYP2C9 (Homo sapiens, UniProt P11712). To be noted: 0.1, 0.5, 1 µM PCB74, 24 h, then 10 µM torsemide 24 h. The method, then:
(§6) CYP1A2 and CYP2C9 enzyme activity was first assessed using a luciferase-based P450-Glo™ screening system (Promega, Madison, WI, USA) following the manufacturer’s instructions. The reaction mixture consisted of 1 nM recombinant enzyme (CYP1A2 or CYP2C9), 250 µM luciferin–ME substrate, 0.1 M potassium phosphate buffer (pH 7.4), and an NADPH regeneration system (including NADP⁺, glucose-6-phosphate, MgCl₂, and glucose-6-phosphate dehydrogenase), in a total volume of 50 µL. Controls for enzyme inhibition included α-naphthoflavone (1 µM) for CYP1A2 and sulfaphenazole (2 µM) for CYP2C9. After preincubation at 37 °C for 10 min (excluding NADPH), the reaction was initiated by adding the NADPH regeneration system and incubated for 30 min. To terminate the reaction and generate luminescence, 50 µL of Luciferin Detection Reagent was added, followed by a 20-min incubation at room temperature. Luminescence was measured using a luminometer, with light intensity proportional to CYP activity. […] Enzyme activity was quantified relative to a d-luciferin standard curve and expressed as pmol luciferin/min/pmol CYP. […] Cells were maintained at 37 °C with 5% CO₂ throughout the experiment. […] Supernatants were transferred to LC–MS vials and analyzed for relevant metabolites. Details on metabolite quantification are provided in the supplemental file. […]

Another data set addresses recombinant CYP2C9 (Homo sapiens, UniProt P11712). Particulars: PCB74 1–10 µM; Luciferin–ME substrate. The procedure: as §6
In the next data set the test system is CYP2C9 mRNA. To be noted: primary human hepatocytes, three donors, 48 h exposure; PCB74 0.1 and 0.5 µM.
For data set [4], the system named is CYP2C9. Details: method as in Makia et al. [2014]. Particulars: cFos and JunD binding to CYP2C9 promoter; ref Makia et al. [2014]; cited from earlier work.
Another data set relates to CYP1A2. Details: method as in Solan and Lavado [2023]. To be noted: ref Solan and Lavado [2023]; cited from earlier work.
The mark [5] stands for this setting: linear regression of MR AUC0–8 h OH-torsemide/torsemide (CYP2C9 activity) on PCB plasma concentration.

Here are results for 3 molecules from PMC12477080, “Polychlorinated biphenyls (PCBs) interact with drug metabolism in vivo” (Archives of Toxicology, 2025).

Each structure is given as a SMILES string.

Chain of recombinant CYP2C9 (P11712 whole entry): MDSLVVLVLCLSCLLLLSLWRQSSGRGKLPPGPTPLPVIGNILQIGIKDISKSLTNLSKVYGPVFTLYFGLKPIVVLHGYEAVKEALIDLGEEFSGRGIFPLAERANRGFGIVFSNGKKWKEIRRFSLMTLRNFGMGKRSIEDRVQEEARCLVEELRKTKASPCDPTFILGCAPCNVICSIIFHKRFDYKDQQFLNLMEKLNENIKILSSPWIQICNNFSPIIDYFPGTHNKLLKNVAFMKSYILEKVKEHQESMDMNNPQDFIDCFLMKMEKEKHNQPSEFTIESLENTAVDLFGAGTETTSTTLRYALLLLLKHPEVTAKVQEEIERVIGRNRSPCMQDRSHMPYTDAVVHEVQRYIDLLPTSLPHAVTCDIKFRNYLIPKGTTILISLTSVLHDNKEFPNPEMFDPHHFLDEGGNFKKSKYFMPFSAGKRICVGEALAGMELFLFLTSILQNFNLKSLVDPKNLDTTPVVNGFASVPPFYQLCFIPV
Chain of HEK293 cells overexpressing CYP2C9 (P11712 whole entry): as above

For the molecule `Clc1ccc(-c2cc(Cl)c(Cl)cc2Cl)cc1` [PCB74], the t value in the data set with CYP2B6 is 0,808; in the data set with CYP2B6 (PM excl), 0,622; with CYP2C9 [1] (setting [5]), 1,826; in the data set with CYP2C9 [1] (linear regression of MR AUC0–8 h OH-torsemide/torsemide (CYP2C9 activity) on PCB plasma concentration, PM excl), 1,723; with CYP2D6, 1,723. The “β (standardized regression coefficient)” value in the data set with CYP2B6 is reported as 0,204; in the data set on CYP2B6 (PM excl), 0,170; in the data set on CYP2C9 [1] (setting [5]) it was 0,395; in the data set with CYP2D6 it was 0,376. The “association with CYP2C9 activity in hierarchical generalized mixed model” value in the data set on CYP2C9 [1] (adjusted for co-factors (smoking status, gender, BMI, age)) is “became significant when BMI, gender, or all factors were included as co-factors”. In addition, the “PCB plasma concentration, Mean [±SD] HELPcB” value in data set [2] (HELPcB (occupationally exposed) group) worked out at 0.129 ± 0.121 ng/mL. Also, the “PCB plasma concentration, Geometric mean, HELPcB” value in data set [2] (HELPcB group, N 10) was 0.086 ng/mL. In addition, in data set [2] (all participants), the “PCB plasma concentration, Mean [±SD] all” value came out at 0.071 ± 0.102 ng/mL. The “PCB plasma concentration, Mean [±SD] control” value in data set [2] (control group (background exposure)) amounted to 0.014 ± 0.011 ng/mL. Besides, the “PCB plasma concentration, Geometric mean, Control” value in data set [2] (control group, N 10) was 0.010 ng/mL. The “effect on CYP2C9 activity in HEK293 cells (torsemide probe)” value in data set [3] is “did not significantly modulate CYP2C9 activity”. The “effect on CYP2C9 enzyme activity (luminescence)” value at recombinant CYP2C9 is listed as “remained unaffected”. Moreover, in the data set on CYP2C9 mRNA, the “effect on CYP2C9 mRNA expression” value was “did not significantly increase CYP2C9 mRNA expression”.

Regarding `CC(C)(C)c1cc(O)ccc1O` [tBHQ, tert-butylhydroquinone], in the data set on CYP2C9 [4], the “effect on CYP2C9 expression” value is listed as “induces CYP2C9 expression via AP-1 activation”.

`O=S(=O)(O)C(F)(F)C(F)(F)C(F)(F)C(F)(F)C(F)(F)C(F)(F)C(F)(F)C(F)(F)F` [PFOS]: the “effect on CYP1A2 activity” value in the data set on CYP1A2 is “inhibits CYP1A2 activity”.
